According to patent publication US7169815B2, “3-methoxybenzyl thiourea derivatives and improved lipid compositions containing same” (The United States of America as represented by the …, priority 2000, dated 2007):
In brackets after ≈: the same amount, converted by molar mass. Like-named read-outs stand apart in the source and are kept apart here.

Legend:
[1] = Oxidative Stability by Rotating Pressure Vessel (RBOT) of refined meadowfoam seed oil plus thiourea compounds; conditions: for Oxidative Stability (RBOT): Refined Meadowfoam Seed Oil plus 0.1% compound
From the text: Another presently preferred method of determining oxidative stability of lipids and oils employs the Oxidative Stability by Rotating Pressure Vessel (RBOT) test. In this test, oxidative stability, determined according to the ASTM D2272-98 test method (ASTM, 2001, “Standard Test Method for Oxidation Stability of Steam Turbine Oils by Rotating Pressure Vessel,” in Book of Standards, Vol. 05.01., American Society for Testing and Materials, West Conshohocken, Pa.), measures the time for oxygen pressure to decrease in a closed stainless steel vessel containing a lipid or oil when heated with a copper coil catalyst. Oxygen taken up by the lipid or oil during the reaction is an indication of oil degradation.
In these experiments, Oxidative Stability by Rotating Pressure Vessel (RBOT) tests were performed with different 3-methoxybenzyl thiourea compounds synthesized in Example 3 that were mixed in different quantities with different mono- and polyunsaturated vegetable oils. Hexane was used to clean and store the copper coils, but all other aspects of the Oxidative Stability by Rotating Pressure Vessel (RBOT) test were the same as in the standard ASTM D2272–98 test method (ASTM, 2001, “Standard Test Method for Oxidation Stability of Steam Turbine Oils by Rotating Pressure Vessel,” in Book of Standards, Vol. 05.01., American Society for Testing and Materials, West Conshohocken, Pa.).

[2] = UVB and UVA molar absorptivities in chloroform; assay type: physicochemical; conditions: 0.01 mg/ml in chloroform; for UVBMAX Molar Absorptivity: Amax in 280–320 nm; for UVAMAX Molar Absorptivity: Amax in 320–400 nm
Procedure: The compounds synthesized in Example 3 were tested to determine their ability to absorb […] UVA light. UV spectra of quantitatively weighed and diluted samples (0.01 mg/ml) in chloroform were scanned from 244–450 nm at 240 nm/min on a Beckman DU 640 spectrophotometer (Beckman Coulter, Inc., Fullerton, Calif.). Amax in the 280–320 nm range was determined and converted to molar absorptivity for the UVB region, and Amax in the 320–400 nm range was determined and converted to molar absorptivity for the UVA region.

in vivo = conditions: Artemia salina (brine shrimp), in vivo; for LC50 at 24 h: other: exposure in seawater in microplate wells
Procedure: (§1) Brine shrimp eggs (Artemia salina) were obtained from Brine Shrimp Direct, Ogden, Utah and stored at 10° C. until used. Eggs (400 mg) were added to 1 l of deionized water containing 40 g of sea salts (Sigma Chemical Co., St. Louis, Mo.).
(§2) Serial dilutions were performed in 100 μl of seawater in triplicate in the wells of a 96-well microplate to give appropriate concentrations. Control wells for both water and DMSO were included with each experiment. […] The number of non-motile, and the total number of, naupli were counted in each well using a binocular microscope (10×).

[3] = test system: Brine Shrimp (Artemia Salina); test: in vivo; conditions: for toxicity against brine shrimp, in words: as Table 7 shows; for LC50: in vivo
Procedure: as §1, §2

[4] = Solubility in refined meadowfoam seed oil (HPLC); assay type: physicochemical; conditions: oil or lipid, thermodynamic from solid, cooled to room temperature overnight
Procedure: Typical retention times were 7–9 min for the thioureas. Samples were weighed accurately (about 0.1 g) into 1.00 g of refined meadowfoam seed oil and heated to temperature (either 30° C. or 50° C.) for 4 h with occasional shaking. The samples were cooled to room temperature overnight, centrifuged and 0.3 g of the supernatant oil was removed and diluted with 1 ml CHCl3 for testing.

[5] = Decomposition temperature by differential scanning calorimetry; assay type: physicochemical; conditions: DSC, onset of decrease in slope of temperature-heat flow curve; unit not given (scans in ° C.)
Procedure: A dual cell Perkin Elmer differential scanning calorimeter (PE DSC 7, Norwalk, Conn.) was used to determine the thermal transitions of the compounds. All scans were carried out from 30° C. to 200° C. at a heating and cooling rate of 10° C./minute and 40° C./min, respectively, except for 1-(3-methoxybenzyl)-3-(1-propenyl) thiourea, for which the scans were carried out from 0° C. to 200° C. at a heating rate of 10° C./min, and 1-(3-methoxybenzyl)-3-octadecyl thiourea, for which both the heating and cooling rates were 10° C./min. 1,3-di(3-methoxybenzyl) thiourea and 1-(3-methoxybenzyl)-3-dodecyl thiourea were heated to 300° C., and 1-(3-methoxybenzyl)-3-(4-methoxybenzoyl) thiourea was heated to 250° C. to determine the decomposition temperature. The decomposition temperature was taken as the onset of a decrease in the slope of the temperature-heat flow DSC curve. The first heating curve was recorded in all cases, and liquid nitrogen was used to quench the samples after the first heating.

[6] = Oxidative Stability Index (OSI) of refined meadowfoam seed oil plus additives
From the text: A presently preferred method of determining oxidative stability of lipids and oils employs the Oxidative Stability Index (OSI), which determines the oxidative stability of an oil by passing air through a sample under stringent temperature control. (Firestone, Oxidative Stability Index (OSI): Official Methods of Recommended Practices of the American Oil Chemists' Society (AOCS), 4th Ed. American Oil Chemists Society, Champaign, Ill., AOCS Official Method Cd 12b-92, 1993.) In this method, a stream of air is passed through the oil sample, which aids in the rapid degradation of the triglyceride into volatile organic acids. The air stream flushes the volatile acids from the oil into a conductivity cell containing water where the acids are solubilized. These acids, once dissolved in the water solution, disassociate into ions, thus changing the conductivity of the water. Therefore, a continuous measure of the conductivity of the cell by computer will indicate when a rapid rise in the conductivity occurs that corresponds to the induction point, oxidative failure of the sample. The time to the induction point is the OSI time. […] Saturated fatty acid methyl ester (FAME) standards commercially available from Alltech Associates (Deerfield, Ill.) may be used to calibrate the OSI determinations.
OSI determinations may be performed on an oxidative stability instrument manufactured by Omnion (Rockland, Mass.) using the AOCS method described in the above-disclosed Firestone reference. Lipid or oil samples may be run at 110° C. and FAMEs may be tested at 90° C., with air flow set at 35 kPa with a resulting velocity of about 140 ml/min. A presently preferred method for determining OSI values is described by T. A. Isbell et al., “Oxidative Stability Index of Vegetable Oils in Binary Mixtures with Meadowfoam Oil,” Industrial Crops and Products 9, 115–123 (1999).
Unless otherwise stated, Oxidative Stability Index (OSI) values were determined on 5.00 ±0.05 g lipid or oil samples in triplicate according to AOCS Official Method Cd 12b-92 (AOCS, 1993) at 90° C., 110° C. and/or 130° C. on an oxidative stability instrument manufactured by Omnion (Rockland, Mass.). Details of the procedure have been published by Isbell et al., “Oxidative Stability Index of Vegetable Oils in Binary Mixtures with Meadowfoam Oil,” Ind. Crops Prod. 9, 115–123 (1999). When compounds of the present invention were added to the lipid or oil sample being tested, the compounds (0.1% to 1.0% by weight) were added to the test lipid or oil (20 g) and dissolved or dispersed at room temperature before triplicate 5.00 g samples of lipid or oil with an added compound of the invention were weighed into the OSI test tube.
The 1,3-di(3-methoxybenzyl) thiourea prepared in Example 3 was mixed at 0.1%, 0.5% or 1.0% with refined meadowfoam seed oil (Lot #CW-4551, The Fanning Corp) and the oxidative stability of the mixtures was compared to that of refined meadowfoam seed oil at 130° C. The OSI times were 49.8 h, 159 h and 172 h, respectively, for the mixtures containing the thiourea compared to an OSI time of 14.9 h for this lot of refined meadowfoam seed oil with no additives at 130° C.
Thus, 1,3-bis(2-methoxyphenyl)-2-thiourea (Aldrich Chem Co.) added at 0. […] Likewise, 1,3-bis(3-methoxyphenyl)-2-thiourea at 0. 1% added to refined meadowfoam oil gave an OSI time of 27.0 h, an […] lower value than for the 1,3-di-(3-methoxybenzyl) thiourea produced in Example 3.

[7] = Behaviour on addition of water to DMSO solution (sample preparation); assay type: physicochemical; conditions: dissolved in 50 μl DMSO, water added to make 1 mg/ml
Procedure: Test compounds (1–2 mg) were originally made up at a concentration of 1 mg/ml in artificial seawater, except for water insoluble compounds, which were dissolved in 50 μl of dimethyl sulfoxide (DMSO) prior to adding enough water to make a 1 mg/ml solution. Serial dilutions were performed in 100 μl of seawater in triplicate in the wells of a 96-well microplate to give appropriate concentrations. Control wells for both water and DMSO were included with each experiment. A 100 μl solution of naupli (10–30) was added to each well, and the covered plate was incubated for 24 h at 27° C. The number of non-motile, and the total number of, naupli were counted in each well using a binocular microscope (10×). LC50 values were then calculated by Probit analysis (Finney, D. J., 1971, “Probit Analysis,” 3rd Ed.; University Press: Cambridge [Eng.]).

[8] = heated to 30° C. for 4 h, read-out: Solubility at 30° C.
[9] = heated to 50° C. for 4 h, read-out: Solubility at 50° C.
[10] = refined meadowfoam oil, 0.1% additive, 130° C.
[11] = refined meadowfoam oil, 0.1% additive, 130° C. (Example 8)
[12] = refined meadowfoam seed oil plus additive 0.1%, 130° C.
[13] = refined meadowfoam seed oil plus additive 0.5%, 130° C.
[14] = refined meadowfoam seed oil plus additive 1.0%, 130° C.

Oxidative Stability (RBOT) [1] [min] | UVBMAX Molar Absorptivity [2] | UVAMAX Molar Absorptivity [2] | solubility at 4 h [4, 8] [µg/mL] | solubility at 4 h [4, 9] [µg/mL] | Decomposition Temperature [5] [°C] | Structure (SMILES) | LC50 at 24 h (in vivo) [µg/mL] | further results
 |  |  |  |  |  | COc1ccccc1NC(=S)Nc1ccccc1OC [1,3-bis(2-methoxyphenyl)-2-thiourea] |  | OSI time lower than for 1,3-di-(3-methoxybenzyl) thiourea [6, 10]: 34%; OSI Time [6, 11]: 37.1 h
 |  |  |  |  |  | COc1cccc(NC(=S)Nc2cccc(OC)c2)c1 [1,3-bis(3-methoxyphenyl)-2-thiourea] |  | OSI time lower than for 1,3-di-(3-methoxybenzyl) thiourea [6, 10]: 84%; OSI Time [6, 11]: 27.0 h
24 | 34090 | 1420 | 2760 (≈ 8350 µM) | 1930 (≈ 5830 µM) | > 200 | COc1ccc(C(=O)NC(=S)NCc2cccc(OC)c2)cc1 [1-(3-methoxybenzyl)-3-(4-methoxybenzoyl) thiourea] | 58 (≈ 176 µM) | 
26 | 2357 | 0.0 | 1050 (≈ 3670 µM) | 1040 (≈ 3620 µM) | > 200 | COc1cccc(CNC(=S)NCc2ccccc2)c1 [1-(3-methoxybenzyl)-3-benzyl thiourea] | 31.6 (≈ 110 µM) | 
41 | 2625 | 0.0 | 1040 (≈ 2860 µM) | 909 (≈ 2490 µM) | 273 | CCCCCCCCCCCCNC(=S)NCc1cccc(OC)c1 [1-(3-methoxybenzyl)-3-dodecyl thiourea] | 3.8 (≈ 10.4 µM) | Oxidative stability in the RBOT test, in words ([1]; addition of 0.1% compound): doubled; toxicity against brine shrimp, in words [3]: high enough to consider its use in therapeutic tests for killing cancer cells; behaviour upon the addition of water [7]: precipitated out of solution
15 | 850 | 0.0 | 280 (≈ 624 µM) | 147 (≈ 328 µM) | > 200 | CCCCCCCCCCCCCCCCCCNC(=S)NCc1cccc(OC)c1 [1-(3-methoxybenzyl)-3-octadecyl thiourea] | 62.5 (≈ 139 µM) | behaviour upon the addition of water [7]: precipitated out of solution
 |  |  |  |  |  | COc1cccc(C=O)c1 [3-methoxybenzaldehyde] |  | OSI Time [6, 12]: 17.5 h; OSI Time [6, 13]: 17.4 h; OSI Time [6, 14]: 18.9 h
 |  |  |  |  |  | COc1cccc(CN)c1 [3-methoxybenzyl amine] |  | OSI Time [6, 12]: 22.9 h; OSI Time [6, 13]: 27.3 h; OSI Time [6, 14]: 32.6 h
 |  |  |  |  |  | COc1cccc(CN=C=S)c1 [3-methoxybenzyl isothiocyanate] |  | OSI Time [6, 12]: 19.1 h; OSI Time [6, 13]: 22.9 h; OSI Time [6, 14]: 24.0 h
 |  |  |  |  |  | COc1cccc(CC#N)c1 [3-methoxyphenyl acetonitrile] |  | OSI Time [6, 12]: 18.6 h; OSI Time [6, 13]: 19.2 h; OSI Time [6, 14]: 19.9 h
 |  |  |  |  |  | Cc1c(C)c2c(c(C)c1O)CC[C@@](C)(CCC[C@H](C)CCC[C@H](C)CCCC(C)C)O2 [D-α-tocopherol, reference compound] |  | LC50 [3]: >1000 µg/mL
 |  |  |  |  |  | O=C1O[C@H]([C@@H](O)CO)C(O)=C1O [ascorbic acid, reference compound] | 315 (≈ 1790 µM) | 
 |  |  |  |  |  | COc1ccc(O)c(C(C)(C)C)c1 [butylated hydroxy aniline (BHA), butylated hydroxy aniline, reference compound] |  | LC50 [3]: 12.2 µg/mL (≈ 67.7 µM)
 | 22350 | 54 |  |  |  | O=C(O)/C=C/c1ccccc1 [trans-cinnamic acid, reference compound] |  | 

Structure (SMILES) | Oxidative Stability (RBOT) [1] [min] | UVBMAX Molar Absorptivity [2] | UVAMAX Molar Absorptivity [2] | solubility at 4 h [4, 8] [µg/mL] | solubility at 4 h [4, 9] [µg/mL] | Decomposition Temperature [5] [°C] | LC50 at 24 h (in vivo) [µg/mL] | further results
C=CCNC(=S)NCc1cccc(OC)c1 | 24 | 2852 | 0.0 | 1670 (≈ 7070 µM) | 981 (≈ 4150 µM) | > 200 |  | LC50 (in vivo): 232 µg/mL (≈ 982 µM); toxicity against brine shrimp, in words [3]: low toxicity
